Data as given in patent US9072293B2, “Cyclopropenes and method for applying cyclopropenes to agricultural products or crops” (Erum Biotechnologies Inc., priority 2010, dated 2015).
Values joined by “and” are separate entries in the source; they are usually repeats but may differ in a detail not shown here. Identical values can stand only once.

Experiments:
[1] = Relative chemical stability of cyclopropenes measured by 1H-NMR; type: physicochemical; details: 1H-NMR, CDCl3, stored at −20° C. or room temperature; relative to chain length 1
Excerpt: A variety of analysis methods can be used to analyze the derivatives of Formula 6, since the absorbance of cyclopropenes containing an aryl group can be easily measured in the UV range. It can be confirmed that the chemical stability of the derivatives increases, when the length of chains to link an aryl ring to a cyclopropene ring is 2 or more. […] It is supposed that the stability of cyclopropenes increase due to the fact that π electrons of aryl groups affect π electrons of cyclopropenes.
The following Table 1 summarizes the relative chemical stability of cyclopropenes having a chain length of 2, 3, 4 or 5, based on the chemical stability of cyclopropenes having a chain length of 1. In the case of cyclopropene having a chain length of 1, the structure thereof can be confirmed via ^1H-NMR within one hour following synthesis (degraded to a level of 50% or more within one hour at 30° C.). In the case of cyclopropene having a chain length of zero, synthesis thereof was attempted in accordance with the present invention, but was impossible by a conventional method. Meanwhile, in the case of cyclopropenes having a chain length of 2 or more, the structure thereof can be precisely confirmed by ^1H-NMR as well as ^13C-NMR. The stability of these cyclopropenes was measured by ^1H-NMR while NMR cells (CDCl3) were stored at −20° C. or room temperature. In particular, cyclopropenes having chains of 3 or more were so stable that their half-life reached 5 days or longer at −20° C. or lower. In ^1H-NMR analysis, the stability was evaluated by comparing integral values at 4 to 6.5 ppm (1H) and 0.8 to 0.9 ppm (2H), characteristic peaks of 1-alkylcyclopropenes, using a small amount of 1,1,3,3-tetramethylurea (2.80 ppm) as an internal standard. Furthermore, the stability was also qualitatively evaluated by comparing integral value of the peak newly generated adjacent to the peak of the olefin proton of cyclopropene ring, as a 1-alkylcyclopropene compound is decomposed.

tomato = assay: Experimental Example 3: Efficacy test on tomato for other drugs (emulsion and oil-based formulation); type: in vivo; details: individual tomatoes n=4
Procedure: At this time, the tops of tomatoes most early turned red, while the bottoms thereof most lately turned red. For this reason, in order to accurately evaluate the difference in reddening, the coloring evaluated was based on the area of red color, rather than the color of tomatoes. […] Accordingly, the grade level is proportional to the rate at which the tomatoes ripened.
1.0 mM emulsions and oil-based formulations of four agents, i.e., 1-(2-(4-methoxyphenyl)ethyl)cyclopropene, 1-(3-(4-methoxyphenyl)propyl)cyclopropene, 1-(3-phenoxypropyl)cyclopropene and 1-(4-phenoxybutyl)cyclopropene were prepared in accordance with Examples 1 and 2.
The tomatoes were screened in the same manner as in Experimental Example 1 and divided into 9 groups (n=4), i.e., a non-treated group and 4 emulsion-type agent groups and 4 oil-based formulation-type agent groups. Tomatoes were treated with the previously prepared agent using a household sprayer such that the surface thereof was saturated. The tomatoes were stood at room temperature (25-30° C.) for 3 days and a reddening level thereof was evaluated based on grades of 0 to 5.

C1=C(CCCCOc2ccccc2)C1 [(4-Phenoxybutyl), 1-(4-phenoxybutyl)cyclopropene]
Stability (relative chemical stability, based on cyclopropenes having a chain length of 1) [1]: >>10
reddening level (grade 0 to 5) (tomato; 1.0 mM Emulsion, Day 0, room temperature (25-30° C.)): 0 (an area in which the surface of tomato was colored in pink was 10% or less) (2×) and 1 (an area in which the surface of tomato was completely colored in red was 10 to 40%) and 2 (an area in which the surface of tomato was completely colored in red was 40 to 70%)
reddening level (grade 0 to 5) (tomato; 1.0 mM Emulsion, Day 1, room temperature (25-30° C.)): 0 (an area in which the surface of tomato was colored in pink was 10% or less) (2×) and 2 (an area in which the surface of tomato was completely colored in red was 40 to 70%) (2×)
reddening level (grade 0 to 5) (tomato; 1.0 mM Emulsion, Day 2, room temperature (25-30° C.)): 1 (an area in which the surface of tomato was completely colored in red was 10 to 40%) (2×) and 3 (an area in which the surface of tomato was completely colored in red was 70% or more and the bottom area remained green) (2×)
reddening level (grade 0 to 5) (tomato; 1.0 mM Emulsion, Day 3, room temperature (25-30° C.)): 2 (an area in which the surface of tomato was completely colored in red was 40 to 70%) (2×) and 4 (2×)
reddening level (grade 0 to 5) (tomato; 1.0 mM Oil-based formulation, Day 0, room temperature (25-30° C.)): 0 (an area in which the surface of tomato was colored in pink was 10% or less) (2×) and 1 (an area in which the surface of tomato was completely colored in red was 10 to 40%) and 2 (an area in which the surface of tomato was completely colored in red was 40 to 70%)
reddening level (grade 0 to 5) (tomato; 1.0 mM Oil-based formulation, Day 1, room temperature (25-30° C.)): 0 (an area in which the surface of tomato was colored in pink was 10% or less) (2×) and 1 (an area in which the surface of tomato was completely colored in red was 10 to 40%) and 2 (an area in which the surface of tomato was completely colored in red was 40 to 70%)
reddening level (grade 0 to 5) (tomato; 1.0 mM Oil-based formulation, Day 2, room temperature (25-30° C.)): 0 (an area in which the surface of tomato was colored in pink was 10% or less) and 1 (an area in which the surface of tomato was completely colored in red was 10 to 40%) and 2 (an area in which the surface of tomato was completely colored in red was 40 to 70%) (2×)
reddening level (grade 0 to 5) (tomato; 1.0 mM Oil-based formulation, Day 3, room temperature (25-30° C.)): 1 (an area in which the surface of tomato was completely colored in red was 10 to 40%) (2×) and 3 (an area in which the surface of tomato was completely colored in red was 70% or more and the bottom area remained green) (2×)
